The test system of assay [1] is hCS-hSpS-hSkM assembloids. Description: Optogenetic stimulation of hCS in hCS-hSpS-hSkM assembloids, muscle displacement. It is filed as cell-based, human. Conditions: NBQX (50 μM) and APV (50 μM) added together; Chrim-expressing hCS, 625 nm. The text has this:
Glutamate uncaging and optogenetic stimulation.
Contraction analysis. […] The mean covariance per field was plotted.

Assay [2] has as its system hSpS. In words: Combinatorial growth factor matrix, gene expression of 16 markers at day 20. The format is cell-based, human. The source says: To establish hSpS differentiation conditions, we designed a combinatorial approach, where we used FGF-2, RA, and WNT and SHH modulators at varying concentrations following neural ectoderm specification of early spheroids. […] Briefly, hiPS cell colonies were lifted from plates using the enzyme dispase, moved to ultra-low attachment plates to form spheroids and exposed to dual SMAD inhibition as we have previously described. Starting on day 4 of in vitro differentiation, neural spheroids were exposed to 3 μM of the WNT activator CHIR-99021, and to 20 ng/ml EGF from day 6 onward. Neural spheroids also received a combination of RA (0.01 or 0.1 μM) and FGF-2 (0, 10 or 20 ng/ml) from day 6, and the SHH activator smoothened agonist (SAG; 0, 0.01, 0.1 or 1 μM) from day 11.
For the combinatorial growth factor matrix, small molecules were added on the same days as described above, and the concentrations for dual SMAD inhibitors, CHIR 99021 and EGF were the same as above. From day 7, the neural medium was changed every other day until day 20, when spheres were collected. No DAPT was added for this experiment.
Real-time quantitative PCR (qPCR). For qPCR analysis of spheroids, at least 2-3 spheroids were pooled per sample. mRNA was isolated using the RNeasy Mini kit and RNase-Free DNase set (Qiagen), and template cDNA was prepared by reverse transcription using the SuperScript Ill First-Strand Synthesis SuperMix for qRT-PCR (Life Technologies). qPCR was performed using Sybr Green (Roche) on a ViiA7 machine (Applied Biosystems, Life Technologies).

A further assay relates to hSpS-hSkM assembloids. Conditions: 405 nm, in the presence of MNI-caged glutamate (3.3 mM). As to the method: (§1) Generation of hSpS-hSkM or hCS-hSpS-hSkM assembloids. To generate neural-muscle assembloids, 3D hSkM that had been in differentiation medium for at least 10 days (see above) were removed from the silicone wells and placed on top of cell culture inserts (0.4 μm pore size; 353090, Corning) that were positioned in 6-well plates containing 2 ml of DMEM/F12 medium supplemented with 1% Non-Essential Amino Acids (NEAA, Life Technologies), 1% Insulin-Transferrin-Selenium (ITS, Life Technologies), 1% penicillin and streptomycin (Life Technologies), L-Ascorbic Acid (AA; 200 nM, Wako) and cAMP (50 nM, Sigma-Aldrich). Next, spheroids (either hSpS or hCS) were placed on the inserts containing 3D hSkM and arranged so that they were in contact with one another and were allowed to interact.
(§2) Glutamate uncaging and optogenetic stimulation. Intact assembloids were imaged under environmentally controlled conditions (37° C., 5% CO2) using a 5× objective in a confocal microscope (Leica SP8). Assembloids, still in transwells, were incubated in the environmentally controlled chamber for 20-30 minutes before imaging. […] At a frame rate of 14.7 frames/sec, a typical stimulation experiment consisted of 500 frames acquired during pre-stimulation, 5 frames of UV stimulation (in specified region of interest, ROI) and 200 frames acquired during poststimulation. […]

Another assay has as its system hCS-hSkM assembloid. Conditions: hCS assembled with hSkM, no hSpS. How it is done:
as §1, §2

In assay [3] the test system is hCS-hSpS-hSkM assembloids. In words: Glutamate uncaging in hCS-hSpS-hSkM assembloids, muscle contraction. The format is cell-based, human. As to the method: as §1
Glutamate uncaging and optogenetic stimulation. Intact assembloids were imaged under environmentally controlled conditions (37° C., 5% CO2) using a 5× objective in a confocal microscope (Leica SP8). Assembloids, still in transwells, were incubated in the environmentally controlled chamber for 20-30 minutes before imaging. […] At a frame rate of 14.7 frames/sec, a typical stimulation experiment consisted of 500 frames acquired during pre-stimulation, 5 frames of UV stimulation (in specified region of interest, ROI) and 200 frames acquired during poststimulation. For optogenetic stimulation, five pulses of light (625 nm, 68 ms in duration each and ˜68 seconds apart) were delivered using an optical fiber-coupled LED (400 μmdiameter, 13.2 mW; Thorlabs) that was directed towards the hCS.

Another assay concerns hSkM. In words: hSkM calcium imaging (Cal-590 AM) in 2D co-culture with hSpS. The format is cell-based, human. The note with it: curare 100 μM; 2D hSkM co-cultured with hSpS; 2-minute period. As to the method:
hSkM calcium imaging. For calcium imaging co-culture experiments, hSkM were plated on 24-well plates as described above and differentiated with Skeletal Muscle Cell Differentiation Medium. After 6-7 days of exposure to differentiation medium, hSkM were co-cultured with hSpS or hCS. […] One hSpS or hCS were placed per well. hSkM-spheroid co-cultures were left undisturbed for two days, and half medium was carefully replaced every other day thereafter. Calcium imaging was performed after 6-7 days of co-culture. Cultures were incubated with Cal-590 AM (10 μM, AAT Bioquest) and PowerLoad (1:100, Invitrogen) for 30 minutes at 37° C., washed once for 10 minutes with full medium and then imaged. A Leica SP8 confocal microscope with a resonant scanner was used for imaging. Spontaneous calcium activity was recorded for 2 min (10 frames per second) in 6-9 fields per well, and for each field the distance from the spheroid was measured.
Calcium imaging. Calcium imaging data was processed using ImageJ (Fiji) and custom MATLAB routines. […] A total number of 798 (hSkM condition), 652 (hCS+hSkM condition), 1006 (hSpS+hSkM condition) and 727 (hSpS+hSkM+curare condition) hSkM fibers were analyzed. Following ROI registration, raw time-series movies were transformed to relative changes in fluorescence: dF/F(t)=(F(t)−F0)/F0, where F0 represented the 5th percentile value of the time series of each ROI. […]

Assay [4] relates to hSpS-limb assembloids (mouse limb buds). In words: Contraction of hSpS-limb assembloids. The format is cell-based. The note with it: curare 100 μM; 14 days after fusion. As to the method: Co-culture of mouse limb and spheroids. For mouse co-culture experiments, timed-pregnant females were sacrificed at E11.5, embryos were collected, and limb buds dissected (both forelimbs and hindlimbs were used for this experiment). Limbs and spheroids (at D25) were then assembled together by placing them in close proximity in a 1.5 ml microcentrifuge tube for 3 days in an incubator. One limb and one spheroid were placed per tube. On day 2 medium was carefully changed. Neural medium supplemented with N−2 supplement (Life Technologies, 17502048) was used. After assembly, mouse-spheroid cultures were placed in 24-well ultralow-attachment plates (Corning), and medium was changed every other day. For contraction quantification, assembloids were visualized using brightfield illumination in an EVOS FL Cell Imaging System (Life Technologies), and they were deemed to be contracting if they moved within a time-window of 30 seconds. Approval for mouse experiments was obtained from the Stanford University's Administrative Panel on Laboratory Animal Care (APLAC).

A further assay has as its system hCS-hSC-hSkM assembloid. Description: Glutamate uncaging in hCS-hSC-hSkM assembled spheroids (Example 1), hSkM contraction. Conditions: tubocurarine 100 μM.
For assay [5], the system named is hSC. In words: Immunocytochemistry of hSC cytoarchitecture. It is filed as cell-based, human. Conditions: DAPT+ hSC condition; day 45. How it is done: (§3) From day 4 in suspension, cultures were supplemented with the GSK-3 inhibitor CHIR 99021 (3 μM). On day 6, spheroids were transferred to neural medium containing neurobasal-A, B-27 supplement without vitamin A, GlutaMax (1:100), penicillin and streptomycin, and supplemented with retinoic acid (RA, 100 nM), EGF (20 ng/ml) and FGF-2 (10 ng/ml). On day 11 of differentiation spheroids were supplemented with the SHH pathway agonist Smoothened Agonist (SAG, 100 nM), in addition to the compounds described above. From day 7 onwards, media was changed every other day. For the hSC+D condition, spheroids received the gamma-secretase inhibitor DAPT (2.5 μM) on days 19, 21 and 23. From day 19, once the initial fate specification stage is finalized, hSCs were transferred to neural medium containing neurobasal-A, B-27 supplement without vitamin A, N−2 supplement, GlutaMax (1:100), penicillin and streptomycin (1:100), and supplemented with BDNF (20 ng/ml), IGF (10 ng/ml), L-Ascorbic Acid (AA, 200 nM) and cAMP (62.5 nM).

Assay [6] concerns hSC. In words: Gene expression analysis (qPCR) of neuronal subtype markers in hSC or hSC+D. The format is cell-based, human. The note with it: DAPT+ condition (2.5 μM) versus hSC; day 30. As to the method: as §3
For assay [7], the system named is hSpS. In words: Single-cell gene expression of hSpS with or without DAPT (BD Rhapsody). The format is cell-based, human. The note with it: hSpS differentiated in the presence of DAPT (2.5 μM, days 19, 21, 23) versus hSpS(−)DAPT; day 45. How it is done: To generate hSpS, hiPS cell medium was supplemented with dual SMAD inhibitors until day 5 and the WNT activator CHIR 99021 (3 μM, Selleckchem) from day 4 to day 18. On day 6, spheroids were transferred to neural medium supplemented with RA (0.1 μM, Sigma-Aldrich), EGF (20 ng ml-1; R&D Systems) and FGF-2 (10 ng ml-1; R&D Systems), with addition of the SHH modulator smoothened agonist (SAG, 0.1 μM, Millipore) from day 11. From day 7, the medium was changed every other day. […] For hSpS, the Notch inhibitor DAPT (2.5 μM, STEMCELL technologies) was added on days 19, 21 and 23. From day 43 onwards, the medium was changed every four to five days.
Single-cell gene expression (BD Rhapsody system). […] Cell labels and molecular indices were identified, and gene identity was determined by alignment against the gencode comprehensive hg19 reference. […] Gene expression profiles of 4,175 and 3,173 cells were recovered for hSpS with or without DAPT, respectively, with an average number of reads of ˜17,000, ˜2,400 molecules and ˜1,400 number of genes detected per cell with average molecular index coverage (that is, the number of times a molecule was sequenced) of 4.8. […]

Entries after “also recorded” stand apart in the source; their conditions may differ.

From the text for hCS-hSC-hSkM assembloid: For cortico-spinal-muscle assembled spheroids, hCS-hSC assembled spheroids were placed on tissue culture inserts and positioned so that hSC was in contact with the 3D hSkM constructs. Media was changed every other day.
The FRAP module of the Leica SP8 confocal microscope was used to uncage glutamate using UV light.

Consider NBQX, for which the “Light induced responses (muscle displacement/contraction) upon hCS optogenetic stimulation” value in assay [1] is recorded as “completely abolished”.

As for “FGF-2: growth factor FGF-2 (R&D Systems)”, in the assay on hSpS [2] (high levels of RA and low levels of FGF-2), the “Rostro-caudal fate (HOXA2 expression pattern)” value is given as “more rostral fates”. In the assay on hSpS [2] (low levels of RA and high levels of FGF-2), the “Rostro-caudal fate (HOXC9 expression)” value is reported as “more caudal fates”.

Regarding `CNC1CCC(N(Cc2cccc(-c3ccncc3)c2)C(=O)c2sc3ccccc3c2Cl)CC1` (centres unmarked) [SAG], the “Expression of ventral progenitor marker genes OLIG2, NKX6-1, FOXA2 and post-mitotic markers CHX10 and ISL1” value in the assay with hSpS [2] (high SAG exposure) is “higher expression”.

Turning to `COc1ccc([N+](=O)[O-])c2c1CCN2C(=O)CC[C@H](N)C(=O)O` [MNI-caged glutamate, MNI-caged-L-glutamate], in the assay with hSpS-hSkM assembloids, the “hSkM contraction upon photostimulation of hSpS” value is reported as “resulted in hSkM contraction”. Moreover, the “Response to glutamate uncaging of hCS” value with hCS-hSkM assembloid is listed as “did not elicit a response”. The “Muscle contraction upon uncaging in hCS” value in assay [3] (405 nm uncaging on hCS) is “robust muscle contraction”. Moreover, the “hSkM contraction upon stimulation of hSpS” value in [3] (405 nm uncaging on hSpS) is given as “coupled with hSkM contraction”.

On to `N[C@@H](CCCP(=O)(O)O)C(=O)O` [APV], for which, in assay [1], the “Light induced responses (muscle displacement/contraction) upon hCS optogenetic stimulation” value is “completely abolished”.

As to `COc1cc2c3cc1Oc1cc(ccc1O)C[C@@H]1c4c(cc(OC)c(O)c4Oc4ccc(cc4)C[C@@H]3N(C)CC2)CC[N+]1(C)C` [curare, (+)-tubocurarine chloride pentahydrate], the “Muscle contraction upon glutamate uncaging in hCS” value in assay [3] (100 μm curare) was “blocked; also recorded: stops”. Also, the “Increase in proportion of active hSkM (spontaneous calcium activity) in hSpS-hSkM” value with hSkM is on record as “blocked”. Also, the “Contraction activity in hSpS-limb assembloids” value in assay [4] is “completely blocked”. The “hSkM contraction after glutamate uncaging on hSC” value with hCS-hSC-hSkM assembloid is “blocked”.

For the molecule `C[C@H](NC(=O)Cc1cc(F)cc(F)c1)C(=O)N[C@H](C(=O)OC(C)(C)C)c1ccccc1` [DAPT], in the assay on hSC [5], the “Cytoarchitecture of hSC (position of cell bodies and axons)” value is given as “cell bodies were found on the inside of the spheroid, while axons were found on the outside of hSC”. Also, in the assay on hSC [6], the “Expression of some interneuron markers (GATA3, EN1, EVX1)” value is on record as “lower expression”; the “Expression of the MN markers ISL1 and HB9” value is recorded as “higher expression”. The “Increase in the proportion of motor neurons” value in the assay on hSpS [7] is “approximately three-fold”.

(Values after US12110510B2, “Functional cortico-spinal-muscle assembled spheroids” (The Board of Trustees of the Leland Stanford Junior …, priority 2018, dated 2024).)
